The test system of data set [1] is Scram (DNA, duplex) GTCGTTCTGATCCAGGTGATGTAGTCGACG/CGTCGACTACATCACCTGGATCAGAACGAC
The experiment in a line: fluorescence turn-on. The settings on record: KCl 150 mM in p53 buffer (80% v/v); NaCl 50 mM in DNA buffer (15% v/v); NaPi pH 7.2, DTT, Tris-HCl, 5% DMSO; room temperature; dye 100 nM.

The test system of data set [2] is RGC (DNA, duplex) CACATGCCTTGCCTGGACTTGCCT/AGGCAAGTCCAGGCAAGGCATGTG
Nature of the data set: fluorescent intercalator displacement by p53. The settings on record: KCl 150 mM in p53 buffer (80% v/v); NaCl 50 mM in DNA buffer (15% v/v); 1 μM DNA, 10 μM dye; dye displaced by p53; NaPi pH 7.2, DTT, Tris-HCl, 5% DMSO.

Data set [3] relates to hairpin p21 RE (DNA, hairpin) GAAGAAGACTGGGCATGTCTAAAAAAGACATGCCCAGTCTTCTTC
The experiment in a line: fluorescence titration. The settings on record: KCl 150 mM in p53 buffer (80% v/v), NaCl 50 mM in DNA buffer (15% v/v), per base pair, approximate, NaPi pH 7.2, DTT, Tris-HCl, room temperature, dye 100 nM.

Data set [4] deals with p21 (DNA, duplex) TAGAGGAAGAAGACTGGGCATGTCTGGGCA/TGCCCAGACATGCCCAGTCTTCTTCCTCTA
Nature of the data set: fluorescent intercalator displacement by p53. The settings on record: KCl 150 mM in p53 buffer (80% v/v); NaCl 50 mM in DNA buffer (15% v/v); 1 μM DNA, 10 μM dye; dye displaced by p53; NaPi pH 7.2, DTT, Tris-HCl, 5% DMSO.

Data set [5] concerns IGF-BP3 (DNA, duplex) CTAGAAAACAAGCCACCAACATGCTTGCATG/CATGCAAGCATGTTGGTGGCTTGTTTTCTAG
Nature of the data set: fluorescence turn-on heat map. The settings on record: KCl 150 mM in p53 buffer (80% v/v); NaCl 50 mM in DNA buffer (15% v/v); 4 μM dye, 250 nM DNA; NaPi pH 7.2, DTT, Tris-HCl, 5% DMSO; room temperature.

Data set [6] has as its system pDINP1 (DNA, duplex) TTATAGAACTTGGGGGAACATGTTTACCAA/TTGGTAAACATGTTCCCCCAAGTTCTATAA
The experiment in a line: fluorescence turn-on heat map. The settings on record: KCl 150 mM in p53 buffer (80% v/v); NaCl 50 mM in DNA buffer (15% v/v); 4 μM dye, 250 nM DNA; NaPi pH 7.2, DTT, Tris-HCl, 5% DMSO; room temperature.

Data set [7] deals with T1, p53-WT (UniProt P04637 94-360). Nature of the data set: fluorescent intercalator displacement; AO-R; p53 concentration-dependent; 1 uM DNA, 10 uM dye; 5% DMSO, 80% p53 buffer (25 mM NaPi pH 7.2, 150 mM KCl, 4 mM DTT), 15% DNA buffer (10 mM Tris-HCl pH 8.0, 50 mM NaCl); room temperature (stated for rotor-DNA mixtures). The settings on record: protein: recombinant; tags: N-terminal His6; chain copies: 4; blunt.

Data set [8] has as its target T1, p53-WT. The experiment in a line: fluorescent intercalator displacement; AO-R; almost no displacement; 1 uM DNA, 10 uM dye; 5% DMSO, 80% p53 buffer (25 mM NaPi pH 7.2, 150 mM KCl, 4 mM DTT), 15% DNA buffer (10 mM Tris-HCl pH 8.0, 50 mM NaCl); room temperature (stated for rotor-DNA mixtures). The settings on record: protein: recombinant; tags: N-terminal His6; chain copies: 4; blunt.

The target of data set [9] is T1, p53-WT. Nature of the data set: fluorescent intercalator displacement; AO-R; strongest displacement of panel; 1 uM DNA, 10 uM dye; 5% DMSO, 80% p53 buffer (25 mM NaPi pH 7.2, 150 mM KCl, 4 mM DTT), 15% DNA buffer (10 mM Tris-HCl pH 8.0, 50 mM NaCl); room temperature (stated for rotor-DNA mixtures). The settings on record: protein: recombinant; tags: N-terminal His6; chain copies: 4; blunt.

The Kd is the concentration at which binding is half-saturated. Read a high Kd as lower affinity.

T1 sequence (P04637 94-360): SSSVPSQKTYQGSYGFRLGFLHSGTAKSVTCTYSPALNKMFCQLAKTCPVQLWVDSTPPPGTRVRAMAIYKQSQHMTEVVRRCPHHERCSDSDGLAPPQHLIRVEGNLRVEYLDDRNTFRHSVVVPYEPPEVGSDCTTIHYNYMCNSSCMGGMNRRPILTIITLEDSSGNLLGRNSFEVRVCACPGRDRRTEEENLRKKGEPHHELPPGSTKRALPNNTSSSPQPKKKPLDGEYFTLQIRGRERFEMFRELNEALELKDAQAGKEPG

On to `CC[n+]1c(-c2ccccc2)c2cc(N)ccc2c2ccc(N)cc21`, for which, in data set [1], the binding entry is “yes”. Consider `CN(C)c1ccc2cc3ccc(N(C)C)c(/C=C(\C#N)C(=O)O)c3nc2c1`, for which the binding result in data set [2], in data set [1] and in data set [4] was “yes” throughout. The molecule also gave a Kd in data set [3] of 4.8 ± 0.8 µM.

`CN(C)c1ccc2cc3ccc(N(C)C)cc3nc2c1` showed a Kd in data set [3] of 12.5 ± 1.0 µM. Moreover, the binding result in data set [1] is “yes”.

Consider `CN1C(=Cc2cc[n+](C)c3ccccc23)Sc2ccccc21`, for which, in data set [1], the binding entry is “yes”. In the case of `CN1C(=Cc2cc[n+](CCCN)c3ccccc23)Sc2ccccc21`, the binding result in [1] was “yes”. For the molecule `C[n+]1ccc(/C=C/c2ccc(-n3c4ccc(/C=C/c5cc[n+](C)cc5)cc4c4cc(/C=C/c5cc[n+](C)cc5)ccc43)cc2)cc1`, the binding result in data set [5] and in data set [6] was “yes” throughout.

As for `C[n+]1ccc(/C=C/c2ccc3c(c2)c2cc(/C=C/c4cc[n+](C)cc4)ccc2n3-c2ccccc2)cc1`, the binding entry in data set [5], in [1] and in data set [6] was “yes” in each case.

B1: RGC RE (dsDNA)
DNA 1: CACATGCCTTGCCTGGACTTGCCT
DNA 2: AGGCAAGTCCAGGCAAGGCATGTG
With B1, in [7], the binding result was “binds”.

B2: Scram (dsDNA)
DNA 1: GTCGTTCTGATCCAGGTGATGTAGTCGACG
DNA 2: CGTCGACTACATCACCTGGATCAGAACGAC
As for B2, the binding result in data set [8] is recorded as “no binding”.

B3: p21 RE (dsDNA)
DNA 1: TAGAGGAAGAAGACTGGGCATGTCTGGGCA
DNA 2: TGCCCAGACATGCCCAGTCTTCTTCCTCTA
For the molecule B3, the binding result in data set [7] is “binds”.

B4: Con-A (dsDNA)
DNA 1: GGGCATGTCCGGGCATGTCC
DNA 2: GGACATGCCCGGACATGCCC
As for B4, the binding result in data set [9] is listed as “binds”.
